The source of these data is patent US6646124B2, “Substituted 4-oxo-napthyridine-3-carboxamides: GABA brain receptor ligands” (Neurogen Corporation, priority 1997, dated 2003).

SMILES strings stand for the structures.

One may read the melting point as the temperature of the solid-liquid transition. `CCOc1ccc2[nH]cc(C(=O)NCc3ccc4c(c3)OCO4)c(=O)c2n1` [Compound 9, N-Piperonyl 6-ethoxy-4-oxo-1,4-tetrahydro-1,5-naphthyridine-3-carboxamide] yielded a melting point of 190 °C.
For `CCSCCNC(=O)c1c[nH]c2ccc(OC)nc2c1=O` [Compound 5, N-[2-(ethylthio)ethyl] 6-methoxy-4-oxo-1,4-dihydro-1,5-napththyridine-3-carboxamide], the melting point is 257 to 259 °C (dec.).
The molecule `O=C(NCc1ccccc1F)c1c[nH]c2ccc(N3CCOCC3)nc2c1=O` [Compound 7, N-(2-Fluorobenzyl) 6-morpholino-4-oxo-1,4-tetrahydro-1,5-naphthyridine-3-carboxamide] showed a melting point of 137 to 139 °C.
As for `CCOc1ccc2[nH]cc(C(=O)NCC3CCCO3)c(=O)c2n1` (stereo not shown) [Compound 4, N-(2-Tetrahydrofuranyl)methyl 6-ethoxy-4-oxo-1,4-tetrahydro-1,5-naphthyridine-3-carboxamide], the melting point fell in the range of 235 to 237 °C.
